Experimental data from patent US7037939B2, “Compound and derivative of gabapentin” (Industrial Technology Research Institue, priority 2002, dated 2006).
Where a name gives a salt, the structure may show the parent alone.

Tested on: Caco-2 cell
Test: Caco-2 monolayer cell transmission rate (in vitro intestinal absorption model)
Assay type: in vitro ADME, human
Excerpt: The common use of the activity selection model for the in vitro intestinal absorption comprises: (1) Carcinoms (Caco-2); (2) Using Chamber; (3) Everted Gut Sac. Basically, there is no difference for those three drug-activity-selection models when they are used for evaluating the activity selection. However, in terms of the cell source from human, a cell line is predominant. Moreover, with the cellular metabolism being similar to human intestines, Caco-2 becomes an excellent tool in the study of intestine absorption. Therefore, in the comparison of the in vitro transmission rate between gabapentin and gabapentin derivatives, the Caco-2 system is still the favorable model.
The research for studying gabapentin and the derivatives thereof in the present invention includes: Caco-2 cell activation, Caco-2 monolayer cell cultivation, resistance value measurement, effect of time to gabapentin transmission rate, and comparison of transmission rate between gabapentin and gabapentin derivatives. In constructing the Caco-2 monolayer, the original cell line is the human colon adenocarcinoma cell (Caco-2), and its data sheet is listed as Table 2.
The Caco-2 cell is activated appropriately, and seeded in the transwell at 37° C. in an amount of about 1×10^5. The aliquot is cultivated in 5% CO2 at 37° C. and replaced with a fresh medium every 3 to 4 days, and then the monolayer cell is obtained by the 21 days cultivation. The integrity of the Caco-2 cell is further characterized by tissue section and resistance value measurement.
HPLC Analysis: Intersil ODS-3V 250*4.6 mm column, Solvent: MeOH/H2O=10:90 to 70:30 with 0.1% of NH4OAc, Flow rate=1.0 ml/min, ELSD: Evaporative Light Scattering Detector. Every derivative has been repeated for 3 times in analysis, 4 hr later, the sample is analyzed for the transmission rate and then averaged to account its transmission fold.

[1] = Caco-2 monolayer, 4 h, mean of 3 repeats, HPLC-ELSD
[2] = ratio of Caco-2 transmission rate to GBP.HCl, 4 h

Row | SMILES | Caco-2 Cell Mean Total Transmission rate 4 h (%) [1] | gbp-prodrug/gbp Transmission Fold [2] | Caco-2 Cell Mean Total Transmission rate 4 h (%) (human, Caco-2, 4 h) | gbp-prodrug/gbp Transmission Fold (human, Caco-2, 4 h)
1 | NCC1(CC(=O)O)CCCCC1 [Control 1, Gabapentin HCl, reference compound] | 1.1% | 1 Fold | – | –
2 | CC(C)C[C@@H](NC(=O)OC(C)(C)C)C(=O)NCC1(CC(=O)O)CCCCC1 [Embodiment 1, {1-[(2R-tert-Butoxycarbonylamino-4-methyl-pentanoylamino)-methyl]-cyclohexyl}-acetic acid] | 29% | 26.4 Fold | – | –
3 | CC(C)(C)OC(=O)NC(C(=O)NCC1(CC(=O)O)CCCCC1)c1ccccc1 (stereo not shown) [Embodiment 3, {1-[(2-tert-Butoxycarbonylamino-2-phenyl-acetylamino)-methyl]-cyclohexyl}-acetic acid] | 3.1% | 2.8 Fold | – | –
4 | CC(C)(C)OC(=O)NC(Cc1ccccc1)C(=O)NCC1(CC(=O)O)CCCCC1 (stereo not shown) [Embodiment 4, {1-[(2-tert-Butoxycarbonylamino-3-phenyl-propionylamino)-methyl]-cyclohexyl}-acetic acid] | 10% | 9.1 Fold | – | –
5 | CSCCC(NC(=O)OC(C)(C)C)C(=O)NCC1(CC(=O)O)CCCCC1 (stereo not shown) [Embodiment 5, {1-[(2-tert-Butoxycarbonylamino-4-methylsulfanyl-butyrylamino)-methyl]-cyclohexyl}-acetic acid] | 26% | 23.6 Fold | – | –
6 | CC(C)(C)OC(=O)NCC1(CC(=O)NCC2(CC(=O)O)CCCCC2)CCCCC1 [Embodiment 6, [1-({2-[1-(tert-Butoxycarbonylamino-methyl)-cyclohexyl]-acetylamino}-methyl)-cyclohexyl]-acetic acid] | 27% | 24.5 Fold | – | –
7 | CCOC(=O)CC1(CNC(=O)C2CCNCC2)CCCCC1 [Embodiment 7, (1-{[(Piperidine-4-carbonyl)-amino]-methyl}-cyclohexyl)-acetic acid ethyl ester] | – | – | 1% | 0.9 Fold
8 | CCOC(=O)CC1(CNC(=O)c2ccccc2)CCCCC1 [Embodiment 8, [1-(Benzoylamino-methyl)-cyclohexyl]-acetic acid ethyl ester] | – | – | 21.4% | 19.5 Fold
9 | CCOC(=O)CC1(CNC(=O)C2(N)CCCCC2)CCCCC1 [Embodiment 9, (1-{[(1-Amino-cyclohexanecarbonyl)-amino]-methyl}-cyclohexyl)-acetic acid ethyl ester] | – | – | 10.4% | 9.5 Fold
10 | CC(C)(C)OC(=O)NC(CO)C(=O)NCC1(CC(=O)O)CCCCC1 (stereo not shown) [Embodiment 10, {1-[(2-tert-Butoxycarbonylamino-3-hydroxy-propionylamino)-methyl]-cyclohexyl}-acetic acid] | – | – | 20.7% | 18.8 Fold
11 | CCOC(=O)CC1(CNC(=O)C(C)N)CCCCC1 (stereo not shown) [Embodiment 11, {1-[(2-Amino-propionylamino)-methyl]-cyclohexyl}-acetic acid ethyl ester] | – | – | 17.6% | 16.0 Fold
12 | CCOC(=O)C(Cc1ccccc1)NC(=O)C(C)NC(=O)CC1(CN)CCCCC1 (stereo not shown) [Embodiment 12, 2-{2-[2-(1-Aminonethyl-cyclohexyl)-acetylamino]-propionylamino}-3-phenyl-propionic acid ethyl ester] | 2.83% | 2.6 Fold | – | –
13 | CCOC(=O)CC1(CNC(=O)C(N)CC(C)C)CCCCC1 (stereo not shown) [Embodiment 13, {1-[(2-Amino-4-methyl-pentanoylamino)-methyl]-cyclohexyl}-acetic acid ethyl ester] | – | – | 12.37% | 11.2 Fold
14 | CCOC(=O)CC1(CNC(=O)C(N)CO)CCCCC1 (stereo not shown) [Embodiment 14, {1-[(2-Amino-3-hydroxy-propionylamino)-methyl]-cyclohexyl}-acetic acid ethyl ester] | – | – | 10.95% | 10.0 Fold
15 | CC(C)(C)OC(=O)NC(Cc1ccccc1)C(=O)NCC1(CC(=O)O)CCCCC1 (stereo not shown) [Embodiment 15, {1-[(2-tert-Butoxycarbonylamino-3-phenyl-propionylamino)-methyl]-cyclohexyl}-acetic acid] | 0.93% | 0.8 Fold | – | –
16 | CCOC(=O)CC1(CNC(=O)C(N)Cc2ccccc2)CCCCC1 (stereo not shown) [Embodiment 16, {1-[(2-Amino-3-phenyl-propionylamino)-methyl]-cyclohexyl}-acetic acid ethyl ester] | – | – | 10.30% | 9.4 Fold
17 | CCOC(=O)CC1(CNC(=O)C(N)C(C)CC)CCCCC1 (stereo not shown) [Embodiment 17, {1-[(2-Amino-3-methyl-pentanoylamino)-methyl]-cyclohexyl}-acetic acid ethyl ester] | – | – | 9.47% | 8.6 Fold
18 | CCOC(=O)CC1(CNC(=O)c2ccccc2CN)CCCCC1 [Embodiment 18, {1-[(2-Aminomethyl-benzoylamino)-methyl]-cyclohexyl}-acetic acid ethyl ester] | – | – | 2.13% | 1.9 Fold
19 | CCOC(=O)CC1(CNC(=O)C2CCC(CN)CC2)CCCCC1 (stereo not shown) [Embodiment 19, (1-{[(4-Aminomethyl-cyclohexanecarbonyl)-amino]-methyl}-cyclohexyl)-acetic acid ethyl ester] | – | – | 11.14% | 10.1 Fold
20 | CCOC(=O)CC1(CNC(=O)C(CC(C)C)NC(=O)CC2(CN)CCCCC2)CCCCC1 (stereo not shown) [Embodiment 20, [1-({2-[2-(1-Aminomethyl-cyclohexyl)-acetylamino]-4-methyl-pentanoylamino}-methyl)-cyclohexyl]-acetic acid ethyl ester] | 12.22% | 11.1 Fold | – | –
21 | CCOC(=O)CC1(CNC(=O)C(NC(=O)CC2(CN)CCCCC2)c2ccccc2)CCCCC1 (stereo not shown) [Embodiment 21, [1-({2-[2-(1-Aminomethyl-cyclohexyl)-acetylamino]-2-phenyl-acetylamino}-methyl)-cyclohexyl]-acetic acid ethyl ester] | 8.58% | 7.8 Fold | – | –
22 | CCOC(=O)CC1(CNC(=O)C(Cc2ccccc2)NC(=O)CC2(CN)CCCCC2)CCCCC1 (stereo not shown) [Embodiment 22, [1-({2-[2-(1-Aminomethyl-cyclohexyl)-acetylamino]-3-phenyl-propionylamino}-methyl)-cyclohexyl]-acetic acid ethyl ester] | 9.26% | 8.4 Fold | – | –
23 | NCC1(CC(=O)N2CCCC2C(=O)NCC2(CC(=O)O)CCCCC2)CCCCC1 (stereo not shown) [Embodiment 23, {1-[({1-[2-(1-Aminomethyl-cyclohexyl)-acetyl]-pyrrolidine-2-carbonyl}-amino)-methyl]-cyclohexyl}-acetic acid] | 10.73% | 9.8 Fold | – | –
24 | CCOC(=O)CC1(CNC(=O)c2ccc(O)c(OC)c2)CCCCC1 [Embodiment 24, {1-[(4-Hydroxy-3-methoxy-benzoylamino)-methyl]-cyclohexyl}-acetic acid ethyl ester] | – | – | 13.59% | 12.4 Fold
25 | CCOC(=O)CC1(CNC(=O)C2CCC(=O)N2)CCCCC1 (stereo not shown) [Embodiment 25, (1-{[(5-Oxo-pyrrolidine-2-carbonyl)-amino]-methyl}-cyclohexyl)-acetic acid ethyl ester] | – | – | 5.68% | 5.2 Fold
26 | CCOC(=O)CC1(CNC(=O)C(N)CCSC)CCCCC1 (stereo not shown) [Embodiment 26, {1-[(2-Amino-4-methylsulfanyl-butyrylamino)-methyl]-cyclohexyl}-acetic acid ethyl ester] | – | – | 9.02% | 8.2 Fold
